Where two headings read alike, the source gives them in different places.
How the values were obtained:
[1] = Plasma pharmacokinetics of 10 WDD components after gavage of WDD (LC-MS/MS, Phoenix NCA and compartment model); assay type: in vivo, SD rats; set-up: Tmax: unit: h; details: for AUC(0-t) / Cmax / half-life / Tmax / t1/2: hyperlipidemia rat plasma, non-compartment, n = 6; for Model (optimal PK compartment model): chosen by AIC, Phoenix Model module, rats given WDD
Experimental: LPO values of all the rats were assessed prior to therapy, and utilized as the baseline. […] Thermo Scientific Hypersil C18 analytical column (particle size: 1.9 µm, length: 100 mm, and diameter: 2.1 mm) was employed. Column operational conditions were like so, column temperature: 30°C, autosampler temperature: 4°C, whereas the flow rate: 0.3 mL/min. Injection volume: 3 μL, and mobile phase: aqueous solution containing 0.1% formic acid aqueous solution (A) and acetonitrile (B). […] Electrospray ion source (ESI) was used for mass spectrometry detection and analysis, both in positive and negative ion patterns. Nitrogen was kept as both of the auxiliary and sheath gas. The capillary temperature was 345°C, the atomizer temperature was 350°C, and the electrospray voltage was 3800 V. The mass spectrometry data for the 10 compounds and the internal standard (IS) are shown in Table 1. After accurately measuring 100 μL of plasma, 10 μL of the QC solution or the IS solution was supplemented, and the blend was vortexed for 30 s. Afterward, 300 μL of acetonitrile (as protein precipitant) was added, vortexed for 1 min, and then centrifuged (10 min at 12000 r/min). Finally, the supernatant was taken and stored for testing. […] The dose, plasma concentration and time after administration were imported into the NCA (Noncompartmental Analysis) module of Phoenix 8.1 to obtain the pharmacokinetic parameters. The Phoenix Model module of Phoenix software was used to establish the atrioventricular model of the drug. Akaike Information Criterion (AIC) rules were used to calculate the optimal PK model.

hyperlipidemia hamsters = test system: hyperlipidemia hamsters; set-up: method as in Shi et al., 2023; details: compared with the control group ref Shi et al., 2023; cited from earlier work
HDL = test system: HDL; set-up: method as in Eu et al., 2010; details: ref Eu et al., 2010; cited from earlier work
hyperlipidemia mice = test system: hyperlipidemia mice; set-up: method as in Yu et al., 2022; details: hyperlipidemia mice ref Yu et al., 2022; cited from earlier work
[2] = test system: experimental hyperlipidemia rat models; set-up: method as in Kumar et al., 2020; details: experimental hyperlipidemia rat models ref Kumar et al., 2020; cited from earlier work
plasma lipids = test system: plasma lipids; set-up: method as in Sahebkar, 2017; details: randomized controlled trials ref Sahebkar, 2017, cited from earlier work
[3] = Sprague-Dawley, po, HTG: WDD 6.6 g/100 g by gavage
[4] = Sprague-Dawley, po, LTG: WDD 2.2 g/100 g by gavage
[5] = Sprague-Dawley, rat, plasma, po, 2.2 g/100 g, LTG: WDD 2.2 g/100 g by gavage
[6] = Sprague-Dawley, rat, plasma, po, 2.2 g/100 g, LTG: WDD 2.2 g/100 g by gavage, read-out: Tmax
[7] = Sprague-Dawley, rat, plasma, po, 6.6 g/100 g, HTG: WDD 6.6 g/100 g by gavage
[8] = Sprague-Dawley, rat, plasma, po, 6.6 g/100 g, HTG: WDD 6.6 g/100 g by gavage, read-out: Tmax

AUC(0-t) [1, 3] [ng·h/mL]	Cmax [1, 3] [ng/mL]	AUC(0-t) [1, 4] [ng·h/mL]	Cmax [1, 4] [ng/mL]	half-life [1, 5] [h]	Tmax [1, 6] [h]	half-life [1, 7] [h]	Tmax [1, 8] [h]	Model (optimal PK compartment model) [1]	Compound	also measured
10200 ± 298	3280 ± 475	8180 ± 500	2940 ± 220	2.3 ± 0.16	0.75	6.02 ± 0.92	0.54 ± 0.21		CC1(C)[C@@H](O)CC[C@]2(C)[C@H]3C(=O)C=C4[C@@H]5C[C@@](C)(C(=O)O)CC[C@]5(C)CC[C@@]4(C)[C@]3(C)CC[C@@H]12 [Glycyrrhetinic acid]	bioavailability (from largest AUC in rat plasma) ([1]; both doses of WDD): good bioavailability
3890 ± 147	607 ± 130	1030 ± 23.8	223 ± 8.19	5.88 ± 3.39	1.42 ± 0.92	3.21		One-Compartment Model	COc1ccc([C@@H]2CC(=O)c3c(O)cc(O)cc3O2)cc1O [Hesperetin]	Tmax ([1]; HTG: WDD 6.6 g/100 g by gavage): 0.67 ± 0.17 h; t1/2 ([1]; HTG: WDD 6.6 g/100 g by gavage): 6.24 ± 0.36 h; Tmax ([1]; HTG: WDD 6.6 g/100 g by gavage, listed as hesperetin): 0.25 h; body weight, obesity index, serum TC, TG, liver TC, TG and free fatty acid levels (hyperlipidemia hamsters): significantly decreased
128 ± 5.67	45.1 ± 2.3	104 ± 5.97	20.6 ± 2.16	10.8 ± 3.88	1.5	15.5 ± 7.44	0.25	One-Compartment Model	CC1(C)[C@@H](O[C@H]2O[C@H](C(=O)O)[C@@H](O)[C@H](O)[C@H]2O[C@@H]2O[C@H](C(=O)O)[C@@H](O)[C@H](O)[C@H]2O)CC[C@]2(C)[C@H]3C(=O)C=C4[C@@H]5C[C@@](C)(C(=O)O)CC[C@]5(C)CC[C@@]4(C)[C@]3(C)CC[C@@H]12 [Glycyrrhizic acid]	HDL (HDL): can increase HDL
713 ± 46.4	575 ± 17.6	210 ± 12.5	36.8 ± 4.99	6.13 ± 0.94	0.54 ± 0.21	5 ± 1.27	0.25	Two-Compartment Model	C[C@@H]1O[C@@H](O[C@H]2[C@H](Oc3cc(O)c4c(c3)O[C@H](c3ccc(O)cc3)CC4=O)O[C@H](CO)[C@@H](O)[C@@H]2O)[C@H](O)[C@H](O)[C@H]1O [Naringin]	effect on reducing lipids and protecting liver (hyperlipidemia mice): strong effect on reducing lipids and protecting liver
54.9 ± 2.07	17.8 ± 3.31	48.5 ± 0.82	16.2 ± 2.35	27.4 ± 4.66	0.5	14.6 ± 9			O=C(/C=C/c1ccc(O)cc1)c1ccc(O)cc1O [Isoliquiritigenin]	Tmax ([1]; HTG: WDD 6.6 g/100 g by gavage): 0.79 ± 0.21 h; Tmax ([1]; HTG: WDD 6.6 g/100 g by gavage, listed as isoliquiritigenin): 0.25 h
6010 ± 96.4	537 ± 7.69	3560 ± 300	388 ± 25.8	12.2 ± 1.65	1.5	11.8 ± 1.81	2.67 ± 0.33	Two-Compartment Model	C[n+]1cccc(C(=O)[O-])c1 [Trigonelline]	
22.4 ± 0.89	25.9 ± 2.98	10.8 ± 0.32	6.8 ± 0.46	8.83 ± 4.57	0.5	3.21 ± 0.89	0.38 ± 0.13	Two-Compartment Model	COc1ccc(-c2cc(=O)c3c(OC)c(OC)c(OC)c(OC)c3o2)cc1 [Tangeretin]	
595 ± 15.4	139 ± 10.6	587 ± 14.3	110 ± 6.8	12.5 ± 4.08	0.75	11.7 ± 1.94	0.75	One-Compartment Model	O=C1C[C@@H](c2ccc(O)cc2)Oc2cc(O)cc(O)c21 [Naringenin]	

Compound	AUC(0-t) [1, 3] [ng·h/mL]	Cmax [1, 3] [ng/mL]	AUC(0-t) [1, 4] [ng·h/mL]	Cmax [1, 4] [ng/mL]	half-life [1, 5] [h]	Tmax [1, 6] [h]	half-life [1, 7] [h]	Tmax [1, 8] [h]	Model (optimal PK compartment model) [1]	also measured
COc1ccc([C@@H]2CC(=O)c3c(O)cc(O[C@@H]4O[C@H](CO[C@@H]5O[C@@H](C)[C@H](O)[C@@H](O)[C@H]5O)[C@@H](O)[C@H](O)[C@H]4O)cc3O2)cc1O [Hesperidin]	439 ± 13.3	194 ± 24.3	172 ± 3.26	34.6 ± 3.22	12.1 ± 5.52	0.67 ± 0.42	4.19 ± 0.17	0.75	One-Compartment Model	altered redox homeostasis [2]: can reduce altered redox homeostasis
O=c1c(O)c(-c2ccc(O)c(O)c2)oc2cc(O)cc(O)c12 [Quercetin]	370 ± 14.7	115 ± 4.83	212 ± 9.39	98.4 ± 8.03	31.1 ± 41.4			0.75	Two-Compartment Model	t1/2 ([1]; HTG: WDD 6.6 g/100 g by gavage): 7.75 ± 12.99 h; Tmax ([1]; LTG: WDD 2.2 g/100 g by gavage): 1.00 ± 0.00 h; triglycerides (plasma lipids; doses above 50 mg/day): significant reduction; effect on plasma lipids (plasma lipids; supplementation): does not have any clinically relevant effect

From PMC10844532, “The in vivo study on antioxidant activity of wendan decoction in treating hyperlipidemia: a pharmacokinetic-pharmacodynamic (PK-PD) model” (Frontiers in Pharmacology, 2024)
